Each structure is given as a SMILES string. Entries after “also recorded” stand apart in the source; their conditions may differ.

From patent US10434142B2, “Compositions and methods of improved wound healing” (Chan Soon-Shiong Nanthealth Foundation, priority 2013, dated 2019) come the findings set out here.

Assay [1] relates to TLR2. Kind of assay: IL-8 production, calcium flux agonist plus TLR2 ligand (FIGS. 2A-2E). In kind it is cell-based. Conditions: suboptimal doses: 20 nM thapsigargin, 316 nM A23187, 1 μM ionomycin, 10 μM cyclopiazonic acid, 31.6 μM DBHQ. How it is done:
(§1) To investigate if that observation was also true for other pattern recognition receptors, and especially for TLR and NOD receptors and other ligands, the inventors tested numerous TLR and NOD receptors and various ligands.
(§2) The doses used in this experiment were 20 nM for thapsigargin, 316 nM for A23187, 1 μM for ionomycin, 10 μM for cyclopiazonic acid, and 31.6 μM for DBHQ.
(§3) Thus, a clear pattern of adjuvant activity of calcium flux agonists on the immune response, and especially on IL-8 production and NF-κB signaling is evident where the immune response is associated with a TLR- or NOD-mediated event.
(In general: A change in cytosolic calcium serves as a functional read-out for many receptors and channels.)

In assay [2] the test system is human THP-1 promonocytic leukemia cell line. Kind of assay: IL-8 production / cytokine release from THP-1 cells, TLR2 ligand with or without calcium flux agonist. Conditions: suboptimal dose of TLR2 ligand (Pam2CSK4 / Pam2CYS) plus suboptimal dose of agonist; beyond cumulative individual responses. The format is cell-based. As for the experimental part:
(§4) For example, human promonocytic THP-1 cells were incubated in the presence or absence of a suboptimal dose of the TLR2 ligand Pam2CSK4 and compared to similarly treated cells which also received suboptimal doses of ionophore (here: A23187 and ionomycin). […] In another example, KB-LUC THP-1 cells (a THP-1-derived transfectant line harboring an NF-κB-driven luciferase expression cassette) were cultivated in the presence or absence of a suboptimal dose of the TLR2 ligand Pam2CSK4 and compared to similarly treated cells that also received suboptimal doses of various SERCA inhibitors.
Here, the ionophores A23187 and ionomycin, as well as the SERCA inhibitor thapsigargin synergize with the TLR2 ligand (Pam2CYS) in the activation of cytokine release from the human THP-1 promonocytic leukemia cell line. It should be especially noted that while the TLR2 ligand alone provided for about 5 ng/ml IL-8 response, addition of a suboptimal dose of the calcium flux agonists (e.g. 20 nM for thapsigargin, 316 nM for A23187, and 1 μM for ionomycin) produced more than 10-fold quantities of IL-8 production in the cells.

The test system of assay [3] is κB-LUC THP-1 cells. Nature of the assay: Activation of κB-LUC THP-1 cells by S. aureus conditioned/spent media (FIGS. 3A-3C). The format is cell-based, human. To be noted: for recognition of S. aureus conditioned/spent media (activation of κB-LUC THP-1 cells): suboptimal doses: thapsigargin, 316 nM A23187, 1 μM ionomycin.
Assay [4] relates to TLR5. Nature of the assay: IL-8 production, calcium flux agonist plus TLR5 ligand (FIGS. 2A-2E). In kind it is cell-based. Conditions: suboptimal doses: 20 nM thapsigargin, 316 nM A23187, 1 μM ionomycin, 10 μM cyclopiazonic acid, 31.6 μM DBHQ. How it is done:
as §1, §2, §3

Assay [5] deals with TLR9. Kind of assay: IL-8 production, calcium flux agonist plus TLR9 ligand (FIGS. 2A, 2B, 2E). In kind it is cell-based. To be noted: suboptimal doses: 20 nM thapsigargin, 316 nM A23187, 1 μM ionomycin. How it is done: as §1, §2, §3
In assay [6] the test system is TLR4. Kind of assay: IL-8 production, calcium flux agonist plus TLR4 ligand (FIGS. 2A-2E). The format is cell-based. To be noted: suboptimal doses: 20 nM thapsigargin, 316 nM A23187, 1 μM ionomycin, 10 μM cyclopiazonic acid, 31.6 μM DBHQ. As for the experimental part:
as §1, §2, §3

The test system of assay [7] is NOD2. Nature of the assay: IL-8 production, calcium flux agonist plus NOD2 ligand (FIGS. 2A-2E). Conditions: suboptimal doses: 20 nM thapsigargin, 316 nM A23187, 1 μM ionomycin, 10 μM cyclopiazonic acid, 31.6 μM DBHQ. In kind it is cell-based. How it is done:
as §1, §2, §3

Assay [8] deals with NOD1. Nature of the assay: IL-8 production, calcium flux agonist plus NOD1 ligand (FIGS. 2A-2E). Conditions: suboptimal doses: 20 nM thapsigargin, 316 nM A23187, 1 μM ionomycin, 10 μM cyclopiazonic acid, 31.6 μM DBHQ. The format is cell-based. How it is done: as §1, §2, §3
Assay [9] has as its system KB-LUC THP-1 cells. Kind of assay: NF-κB-driven luciferase in KB-LUC THP-1 cells, TLR2 ligand Pam2CSK4 with or without SERCA inhibitor. To be noted: suboptimal dose of Pam2CSK4 plus suboptimal dose of SERCA inhibitor; beyond cumulative individual responses. In kind it is cell-based, human. How it is done: as §4

As to `CNc1ccc2oc(C[C@H]3O[C@@]4(CC[C@H]3C)O[C@H]([C@H](C)C(=O)c3ccc[nH]3)[C@H](C)C[C@H]4C)nc2c1C(=O)O` [A23187], in assay [1], the “synergistic effect to augment cellular response (IL-8 production) for TLR2” value (from here on “synergistic effect … for TLR2”) was “synergistic effect”. For the same compound, in assay [2], the “synergy with TLR2 ligand in IL-8 production / cytokine release” value is reported as “significantly increased; also recorded: synergize”. In [3], the “recognition of S. aureus conditioned/spent media (activation of κB-LUC THP-1 cells)” value is reported as “significantly enhanced”. Besides, the “synergistic effect to augment cellular response (IL-8 production) for TLR5” value (from here on “synergistic effect … for TLR5”) in assay [4] is “synergistic effect”. Besides, the “synergistic effect to augment cellular response (IL-8 production) for TLR9” value (from here on “synergistic effect … for TLR9”) in [5] was “synergistic effect”. The “synergistic effect to augment cellular response (IL-8 production) for TLR4” value (“synergistic effect … for TLR4” below) in assay [6] is on record as “synergistic effect”. Further, the “synergistic effect to augment cellular response (IL-8 production) for NOD2” value (“synergistic effect … for NOD2” for short) in [7] is “synergistic effect”. Further, the “synergistic effect to augment cellular response (IL-8 production) for NOD1” value (from here on “synergistic effect … for NOD1”) in [8] is on record as “synergistic effect”.

In the case of `CC(C)(C)c1cc(O)c(C(C)(C)C)cc1O` [DBHQ, 2,5-di(tert-butyl) hydroquinone], in [1], the “synergistic effect … for TLR2” value is “synergistic effect”. Besides, the “synergistic effect … for TLR5” value in assay [4] is reported as “synergistic effect”. Moreover, the “synergistic effect … for TLR4” value in assay [6] was “synergistic effect”. For the same compound, the “synergistic effect … for NOD2” value in assay [7] is “synergistic effect”. Besides, the “synergistic effect … for NOD1” value in [8] is “synergistic effect”.

`O=C(O)CN(CCOCCOCCN(CC(=O)O)CC(=O)O)CC(=O)O` [EGTA]: in assay [3] (extracellular chelator added at 1 mM), the “effect on calcium flux-induced synergy” value is on record as “inhibited”.

Regarding `C[C@H](CCC(=O)O)C[C@H](C)C[C@H](C)C(=O)/C=C(\O)[C@H](C)C[C@H](C)C/C=C/[C@@H](C)[C@@H](O)[C@@H](C)[C@@H](O)C[C@@H]1CC[C@@](C)([C@H]2CC[C@@](C)([C@@H](C)O)O2)O1` [ionomycin], the “synergistic effect … for TLR2” value in [1] is on record as “synergistic effect”. In assay [2], the “synergy with TLR2 ligand in IL-8 production / cytokine release” value is “significantly increased; also recorded: synergize”. Besides, the “recognition of S. aureus conditioned/spent media (activation of κB-LUC THP-1 cells)” value in assay [3] was “significantly enhanced”. The “synergistic effect … for TLR5” value in assay [4] is recorded as “synergistic effect”. Further, the “synergistic effect … for TLR9” value in assay [5] is reported as “synergistic effect”. Further, the “synergistic effect … for TLR4” value in [6] was “synergistic effect”. In addition, the “synergistic effect … for NOD2” value in assay [7] is “synergistic effect”. Besides, the “synergistic effect … for NOD1” value in assay [8] is “synergistic effect”.

Regarding `C/C=C(/C)C(=O)O[C@H]1C(C)=C2[C@H]([C@@H]1OC(=O)CCCCCCC)[C@@](C)(OC(C)=O)C[C@H](OC(=O)CCC)[C@@]1(O)[C@H]2OC(=O)[C@@]1(C)O` [thapsigargin], the “synergistic effect … for TLR2” value in assay [1] is recorded as “synergistic effect”. In addition, the “synergy with TLR2 ligand in IL-8 production / cytokine release” value in assay [2] is “synergize”. In [3], the “recognition of S. aureus conditioned/spent media (activation of κB-LUC THP-1 cells)” value is “significantly enhanced”. In addition, the “synergistic effect … for TLR5” value in assay [4] is “synergistic effect”. The “amount of luciferase produced (NF-κB-driven), synergy with TLR2 ligand” value in assay [9] is recorded as “significantly increased”. Also, the “synergistic effect … for TLR9” value in assay [5] is given as “synergistic effect”. Moreover, in assay [6], the “synergistic effect … for TLR4” value is “synergistic effect”. In addition, the “synergistic effect … for NOD2” value in assay [7] is reported as “synergistic effect”. Moreover, the “synergistic effect … for NOD1” value in assay [8] was “synergistic effect”.
